According to patent publication US9266904B2, “6-bridged heteroaryldihydropyrimidines for the treatment and prophylaxis of hepatitis B virus infection” (priority 2013, dated 2016):
In brackets after ≈: the same amount, converted by molar mass. Where two headings read alike, the source gives them in different places.

Experiments:
HepDE19 cells = experiment: Cytotoxicity (CCK-8 cell viability) and selectivity index; assay type: cell-based, human; conditions: CC50 value/EC50 value
Outline: (§1)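 HepDE19 cells (5×10^3/well) were treated with compounds as for the EC50 runs and, after 5 days, given CCK-8 for 2 h at 37° C. Absorbance was read at OD450 and OD630, and CC50 was taken as the concentration killing 50% of host cells.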

[1] = as above; assay type: cell-based, human; conditions: human, HepDE19 cells; cytotoxicity, concentration resulting in death of 50% of host cells
Outline: as §1

CYP3A4 = conditions: human, 24 h
Description: Human cryopreserved hepatocytes (Life Technologies, Carlsbad, USA) were thawed and cultured in collagen I coated 96-well plates with a density of 52,000 cells/well. After attachment, medium was changed and cells were pre-cultured overnight in hepatocyte maintenance medium (HMM; Lonza, Switzerland).
Test compounds were dosed to the cells next morning at an indicated concentration (up to 10 μM) in HMM culture media containing gentamycin and a constant 0.1% DMSO. Similarly, dilutions of the positive inducer compounds omeprazole (prototypical inducer of human CYP1A2; final concentrations: 1 and 10 μM), phenobarbital (prototypical inducer of human CYP2B6; final concentrations: 100 and 1000 μM) and rifampicin (prototypical inducer of human CYP3A4; final concentrations: 1 and 10 μM) were prepared from 1000 fold DMSO stock solutions in HMM containing gentamycin. Medium change was then performed and cells were exposed for 24 hours to test compounds, positive inducer compounds, or vehicle (0.1% DMSO), respectively.
At the end of the compound exposure period, medium was removed and cells lysed using 100 μL/well MagNA Pure LC RNA isolation tissue lysis buffer (Roche Diagnostics AG, Rotkreuz, Switzerland). Plates were then sealed and frozen at −80° C. until further workup.
mRNA isolation was performed using the MagNA Pure 96 system (Roche Diagnostics AG, Rotkreuz, Switzerland) and the respective cellular RNA large volume kit (Roche Diagnostics AG, Rotkreuz, Switzerland) from thawed samples diluted 1:1 with PBS. The volume of the cell lysis and an elution volume of 100 μL were used. 20 μL of the resulting mRNA suspension was then used for reverse transcription using 20 μL of the transcript or first stand cDNA synthesis kit (Roche prime Supply, Mannheim, Germany). The resulting cDNA was diluted with 40 μL of H2O before using for qRT-PCR. qRT-PCR was performed by using the forward and the reverse primer, the corresponding UPL (all from Microsynth, Balgach, Switzerland) and the Taqman Fast advanced master mix (Applied Biosystems), on an ABI 7900 machine (Applied Biosystems).
qRT-PCR Ct-values for the respective P450s were put into relation to the Ct-value of RN18S1 (microsynth, Balgach, Switzerland) of the same sample. Doing so, a respective Δct-value was calculated. Using the average of all Δct-values for the vehicle control samples, a ΔΔct-value was calculated for each sample (ΔΔct-value(sample)=Δct-value(sample)−average of Δct-value of all vehicle controls). The fold induction of the respective sample was calculated as 2^(−ΔΔct). The individual fold induction values were then averaged per treatment condition (usually n=3 biological replicates).
Relative induction values to the respective positive inducer compound condition (10 μM omeprazole for CYP1A2; 1000 μM Phenobarbital for CYP2B6; 10 μM rifampicin for CYP3A4) were then calculated from the fold induction values as follows: Relative induction(%)=100×(T−V)/(P−V)
T: fold induction of test compound condition
P: fold induction of positive inducer compound
V: fold induction of vehicle controls

[2] = system: HBV replication in HepG2.2.15 cells; experiment: Anti-HBV activity in vitro in HepG2.2.15 cells (extracellular HBV DNA by qPCR); assay type: cell-based; conditions: Hepatitis B virus, HepG2.2.15, Anti-HBV activity in HepG2.2.15 cells; read-out: EC50
Outline: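 EC50 is derived from qPCR of extracellular viral DNA in culture supernatant after 5-day compound exposure. Cells (HepG2.2.15, stably carrying the HBV genome) were plated and incubated overnight at 37 °C before half-log dilution series were added at 0.5% final DMSO.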

[3] = Human microsomal clearance assay; assay type: in vitro ADME
Outline: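 Liver microsomes (0.5 mg/mL protein) were incubated with 1 μM compound at 37 °C, pH 7.4 phosphate, with an NADPH-regenerating system. Samples at 0-30 min were quenched and measured by LC-MS/MS for parent loss. No-NADPH controls were included.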

[4] = Lyophilisation solubility assay (Lysa); assay type: physicochemical; conditions: thermodynamic from solid
Outline: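 DMSO was evaporated from 10 mM stocks, and residues were taken up in 0.05 M phosphate buffer pH 6.5, stirred 1 h, shaken 2 h and left overnight. Filtrates were quantified by UV or HPLC-UV against a four-point calibration, in duplicate. Values are in μg/ml, with a lower-bound value when >80% dissolved.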

SMILES	Selectivity index (CC50/EC50) (HepDE19 cells)	CC50 at 5 days [1] [nM]	% of Positive control (10 μM Rifampicin) (CYP3A4) [%]	EC50 [2] [nM]	CLh ([3]; human, 1 μM, pH 7.4) [mL/min/kg]	solubility thermodynamic ([4]; pH 6.5, aqueous buffer) [µg/mL]	CLh ([3]; human microsomal clearance) [mL/min/kg]	solubility thermodynamic ([4]; aqueous buffer, 0.05 M phosphate buffer (pH 6.5), reported as bigger than the value if more than 80% of the sample is in solution, read-out: Lysa) [µg/mL]
COC(=O)C1=C(CN2[C@@H]3COC[C@H]2C[C@@H](NS(N)(=O)=O)C3)NC(c2nccs2)=N[C@H]1c1ccc(F)cc1Cl [Example 56, Methyl (4R)-4-(2-chloro-4-fluoro-phenyl)-6-[[(1R,5S)-7-endo-(sulfamoylamino)-3-oxa-9-azabicyclo[3.3.1]nonan-9-yl]methyl]-2-thiazol-2-yl-1,4-dihydropyrimidine-5-carboxylate]	9766	43000	23	4.4	6.1	–	–	–
CCOC(=O)C1=C(CN2[C@@H]3COC[C@H]2C[C@H](CC(=O)O)C3)NC(c2nccs2)=N[C@H]1c1ccc(F)c(F)c1Cl [Example 69, Exo-2-[(1S,5R)-9-[[(4R)-4-(2-chloro-3,4-difluoro-phenyl)-5-ethoxycarbonyl-2-thiazol-2-yl-1,4-dihydropyrimidin-6-yl]methyl]-3-oxa-9-azabicyclo[3.3.1]nonan-7-yl]acetic acid]	>32258	> 100000	21	3.1	2.4	203 (≈ 349 µM)	–	–
COC(=O)C1=C(CN2CC3CC(C2)O3)NC(c2nccs2)=N[C@H]1c1ccc(F)cc1Cl [Example 38, (R)-4-(2-Chloro-4-fluoro-phenyl)-6-(6-oxa-3-aza-bicyclo[3.1.1]hept-3-ylmethyl)-2-thiazol-2-yl-1,4-dihydro-pyrimidine-5-carboxylic acid methyl ester]	–	–	35	114	–	–	–	–
CCOC(=O)C1=C(CN2[C@@H]3COC[C@H]2C[C@H](CC(=O)O)C3)NC(c2nccs2)=N[C@H]1c1cccc(F)c1Br [Example 68, Exo-2-[(1S,5R)-9-[[(4R)-4-(2-bromo-3-fluoro-phenyl)-5-ethoxycarbonyl-2-thiazol-2-yl-1,4-dihydropyrimidin-6-yl]methyl]-3-oxa-9-azabicyclo[3.3.1]nonan-7-yl]acetic acid]	–	–	7.7	3.8	3.5	320 (≈ 527 µM)	–	–
COC(=O)C1=C(CN2C3COCC2C(NC(C)=O)C3)NC(c2nccs2)=N[C@H]1c1ccc(F)cc1Cl (stereo partly drawn) [Example 48, Methyl (4R)-6-[(6-acetamido-3-oxa-8-azabicyclo[3.2.1]octan-8-yl)methyl]-4-(2-chloro-4-fluoro-phenyl)-2-thiazol-2-yl-1,4-dihydropyrimidine-5-carboxylate]	–	–	17	19.4	4.8	100 (≈ 187 µM)	–	–
COC(=O)C1=C(CN2[C@@H]3C[C@H](CC(=O)O)C[C@H]2C(F)(F)C3)NC(c2nccs2)=N[C@H]1c1ccccc1Cl [Example 90, 2-[(1R,3S,5S)-8-[[(4R)-4-(2-chlorophenyl)-5-methoxycarbonyl-2-thiazol-2-yl-1,4-dihydropyrimidin-6-yl]methyl]-6,6-difluoro-8-azabicyclo[3.2.1]octan-3-yl]acetic acid]	–	–	37	3.5	1.5	230 (≈ 417 µM)	–	–
CCOC(=O)C1=C(CN2[C@@H]3COC[C@H]2C[C@H](CC(=O)O)C3)NC(c2nccs2)=N[C@H]1c1cccc(F)c1Cl [Example 66, Exo-2-[(1S,5R)-9-[[(4R)-4-(2-chloro-3-fluoro-phenyl)-5-ethoxycarbonyl-2-thiazol-2-yl-1,4-dihydropyrimidin-6-yl]methyl]-3-oxa-9-azabicyclo[3.3.1]nonan-7-yl]acetic acid]	–	–	6.2	3.6	3.2	390 (≈ 693 µM)	–	–
COC(=O)C1=C(CN2C3COCC2c2cn[nH]c2C3)NC(c2nccs2)=N[C@H]1c1ccc(F)cc1Cl (stereo partly drawn) [Example 31, (R)-4-(2-Chloro-4-fluoro-phenyl)-6-(10-oxa-4,5,12-triaza-tricyclo[6.3.1.0*2,6*]dodeca-2(6),3-dien-12-ylmethyl)-2-thiazol-2-yl-1,4-dihydro-pyrimidine-5-carboxylic acid methyl ester]	–	–	25	35	–	–	–	–
COC(=O)C1=C(CN2CC3(CO)CC2CO3)NC(c2nccs2)=N[C@H]1c1ccc(F)cc1Cl (stereo partly shown) [Example 39]	>5848	> 100000	–	32	–	–	7.4	> 610
CCOC(=O)C1=C(CN2[C@@H]3COC[C@H]2C[C@H](CC(=O)O)C3)NC(c2nccs2)=N[C@H]1c1ccccc1Br [Example 77, Exo-2-[(1S,5R)-9-[[(4R)-4-(2-bromophenyl)-5-ethoxycarbonyl-2-thiazol-2-yl-1,4-dihydropyrimidin-6-yl]methyl]-3-oxa-9-azabicyclo[3.3.1]nonan-7-yl]acetic acid]	>7143	> 100000	–	14	1.3	491 (≈ 833 µM)	–	–
COC(=O)C1=C(CN2C3CC(F)(F)C2C[C@@](O)(CC(=O)O)C3)NC(c2nccs2)=N[C@@H]1c1ccc(F)c(F)c1C (single isomer, unassigned) [Example 118]	8960	45000	–	5	3.1	112 (≈ 192 µM)	–	–
CCOC(=O)C1=C(CN2C3COCC2C(C(=O)O)C3)NC(c2nccs2)=N[C@H]1c1ccc(F)cc1Br (stereo partly drawn) [Example 52, 8-[[(4R)-4-(2-bromo-4-fluoro-phenyl)-5-ethoxycarbonyl-2-thiazol-2-yl-1,4-dihydropyrimidin-6-yl]methyl]-3-oxa-8-azabicyclo[3.2.1]octane-6-carboxylic acid]	>5587	> 100000	–	17.9	2.7	> 630	–	–
COC(=O)C1=C(CN2C3COCC2CC(NC(C)=O)C3)NC(c2nccs2)=N[C@H]1c1ccc(F)cc1Cl (stereo partly drawn) [Example 35, (R)-6-(7-Acetylamino-3-oxa-9-aza-bicyclo[3.3.1]non-9-ylmethyl)-4-(2-chloro-4-fluoro-phenyl)-2-thiazol-2-yl-1,4-dihydro-pyrimidine-5-carboxylic acid methyl ester]	7813	50000	20	6	6.4	–	–	–
COC(=O)C1=C(CN2[C@@H]3C[C@@H](CC(=O)O)C[C@H]2C(F)(F)C3)NC(c2nccs2)=N[C@H]1c1ccc(F)cc1Cl [Example 109, 2-[(1R,3R,5S)-8-[[(4R)-4-(2-chloro-4-fluoro-phenyl)-5-methoxycarbonyl-2-thiazol-2-yl-1,4-dihydropyrimidin-6-yl]methyl]-6,6-difluoro-8-azabicyclo[3.2.1]octan-3-yl]acetic acid]	>58824	> 100000	–	1.7	7.2	107 (≈ 188 µM)	–	–
COC(=O)C1=C(CN2C3CC(F)(F)C2C[C@@](O)(CC(=O)O)C3)NC(c2nccs2)=N[C@H]1c1ccc(F)cc1Cl (single isomer, unassigned) [Example 116]	>13699	> 100000	–	7.3	2.6	495 (≈ 846 µM)	–	–
COC(=O)C1=C(CN2C3COCC2CN(C(N)=O)C3)NC(c2nccs2)=N[C@H]1c1ccc(F)cc1Br [Example 54, Methyl (4R)-4-(2-bromo-4-fluoro-phenyl)-6-[(7-carbamoyl-3-oxa-7,9-diazabicyclo[3.3.1]nonan-9-yl)methyl]-2-thiazol-2-yl-1,4-dihydropyrimidine-5-carboxylate]	7300	60000	–	8.2	6.5	119 (≈ 205 µM)	–	–
COC(=O)C1=C(CN2C3COCC2CN(C)C3)NC(c2nccs2)=N[C@H]1c1ccc(F)cc1Cl [Example 12, (R)-4-(2-Chloro-4-fluoro-phenyl)-6-(7-methyl-3-oxa-7,9-diaza-bicyclo[3.3.1]non-9-ylmethyl)-2-thiazol-2-yl-1,4-dihydro-pyrimidine-5-carboxylic acid methyl ester]	–	–	21	566	–	> 597	–	–
COC(=O)C1=C(CN2C3COCC2CC(CC(=O)O)C3)NC(c2nccs2)=N[C@H]1c1ccc(F)cc1Br (stereo partly drawn) [Example 28, (R)-4-(2-Bromo-4-fluoro-phenyl)-6-(7-carboxymethyl-3-oxa-9-aza-bicyclo[3.3.1]non-9-ylmethyl)-2-thiazol-2-yl-1,4-dihydro-pyrimidine-5-carboxylic acid methyl ester]	>9804	> 100000	–	15	0.6	> 655	–	–
